In brackets after ≈: the same amount, converted by molar mass. Like-named read-outs stand apart in the source and are kept apart here.

The nature of one data set: Solubility in water. Format: physicochemical. Here is the method: For example, the volume of water required to dissolve 1 mg of various glycosides is as following; 2 to 3 ml for 17-glucoside, 2 ml for 17-maltoside, 0.7 ml for 2-glucoside, and 3 ml for 3-glucoside, while 1 mg of 2-hydroxyestradiol cannot be dissolved in 3 ml of water. Accordingly, the glycosides obtained in the present invention provide a way to prepare an injection containing the same.

Data set [1] concerns low-density lipoprotein (LDL). Description: Inhibitory effect on the lipid peroxidation of low-density lipoprotein (CuSO4-induced; methylene blue method). Format: biochemical, rabbit (hypercholesterolemic). As to conditions: for amount of lipid peroxides: LDL + CuSO4, 5 nmol compound in 1 ml. The method, then: (Inhibitory effect of 2-hydroxyestradiol 17-glucoside on the lipid peroxidation of low-density lipoprotein)
Low-density lipoprotein (LDL) was prepared from hypercholesterolemic rabbit serum. 2-Hydroxyestradiol 17-(β-D-glucopyranoside) (2-OHE2 17-Glu) obtained according to the method of this invention (Example 4 ) was dissolved in distilled water and 2-hydroxyestradiol (2-OHE2) as a reference compound, in dimethylsulfoxide (DMSO), to give a final concentration of 500 μM. The reaction mixture contained the followings in a final volume of 1 ml: 500 μg of LDL; 5 nmol of CuSO4; and 5 nmol of either 2-OHE2 17-Glu or 2-OHE2. As blank tests, distilled water or DMSO was added in place of 2-OHE2 17-Glu or 2-OHE2. After incubation for a definite time at […], the amount of lipid hydroperoxides generated was determined by the methylene blue method.
Values in TABLE 1 indicate the amount of lipid peroxides (nmol/mg

The test system of the next data set is red blood cells. The data set is described as follows: Incorporation of glycosides of 2-hydroxyestradiol into red blood cells. Format: in vitro ADME. The method, then: (§1) (Incorporation of glycosides of 2-hydroxyestradiol into red blood cells)
(§2) The reaction mixture contained 0.2 nmol of 2-OHE2, 2-OHE2 17-Glu, or 2-hydroxyestradiol 17-(β-maltoside) (2-OHE2 17-Mal, obtained in Example 5) in 0.1 ml of 0.2% DMSO-0.1% ascorbic acid in phosphate buffered saline (PBS) and 0.9 ml of suspension of red blood cells in PBS. After incubation at 37° C. for several intervals, the mixture was centrifuged and supernatant fraction was obtained, and then the amount of each glycoside of 2-hydroxyestradiol remained in the supernatant was determined by HPLC.
(§3) Values in Table 3 indicate residual amount (%) in the incubation medium.

For a further data set, the system named is Male mice of ddY strain. The data set is described as follows: Acute toxicity (intraperitoneal injection). Type of data set: in vivo, mouse. The following applies: 250, 500, 750 or 1000 mg/kg i.p.; observation period of 2 weeks. Here is the method:
(§4) Male mice of ddY strain were received 2-OHE2 17-Glu or 2-OHE2 2-Glu by an intraperitoneal injection at doses of 250 mg, 500 mg, 750 mg, or 1000 mg/kg body weight.

Data set [2] in a line: Acute toxicity (intraperitoneal injection). Type of data set: in vivo, mouse. As to conditions: mouse, in vivo, ip; male ddY mice, intraperitoneal; 2 weeks. Here is the method:
as §4

A further data set deals with rat liver homogenate. The data set is described as follows: Inhibitory effect on the lipid peroxidation of rat liver homogenate (thiobarbituric acid method). Format: biochemical. The following applies: 10 μM; 4 hours at 37° C. Here is the method:
(Inhibitory effect of 2-hydroxyestradiol 2-glucoside on the lipid peroxidation of rat liver homogenate)
A rat liver homogenate was prepared in 4 volume of 0.15M KCl .2-OHE2 2-Glu was dissolved in distilled water and 2-OHE2, in 1% DMSO, to give a final concentration of 1 mM. The reaction mixture contained the followings in a final volume of 2 ml; 1.98 ml of rat liver homogenate (10 mg protein/ml) and 10 μM either 2-PHE2 2-Glu or 2-OHE2. As blank tests, the same volume of distilled water or 1% DMSO was added in place of 2-OHE2 2-Glu or 2-OHE2. After incubation for 4 hours at 37° C., lipid peroxide level was determined by the thiobarbituric acid method.

The test system of a further data set is rat brain homogenate. The data set is described as follows: Inhibitory effect on the lipid peroxidation of rat brain homogenate (thiobarbituric acid method). Type of data set: biochemical. The following applies: for amount of lipid peroxides in terms of malondialdehyde: 37° C. Here is the method:
(Inhibitory effect of 2-hydroxyestradiol 2-glucoside on the lipid peroxidation of rat brain homogenate)
2-Hydroxyestradiol 2-(β-D-glucopyranoside) (2-OHE2 2-Glu) obtained according to the method of this invention (Example 16) was dissolved in water to give a concentration of 1 mM or 0.5 mM. The reaction mixture contains the followings in a final volume of 2 ml; 1.98 ml of rat brain homogenate (10 mg protein/ml) and 2-OHE2 2-Glu at a concentration of 5 μM or 10 μM. After incubation at 37° C., lipid peroxide level was determined by the thiobarbituric acid method.
Values in Table 2 indicate the amount of lipid peroxides (nmol/mg protein
in terms of malondialdehyde.

Data set [3] in a line: Incorporation of glycosides of 2-hydroxyestradiol into red blood cells. Format: in vitro ADME. As to conditions: red blood cell suspension, 0.2 nmol compound, 37° C., read-out: residual amount in the incubation medium. The method, then: as §1, §2, §3

Consider `C[C@]12CC[C@@H]3c4cc(O)c(O[C@@H]5O[C@H](CO)[C@@H](O)[C@H](O)[C@H]5O)cc4CC[C@H]3[C@@H]1CC[C@@H]2O` [2-Hydroxyestradiol 3-(β-D-glucopyranoside)], for which the solubility is 3 mL in the data set “Solubility in water” and 333 µg/mL (≈ 740 µM) in “Solubility in water” (water).
Regarding `C[C@]12CC[C@@H]3c4cc(O)c(O)cc4CC[C@H]3[C@@H]1CC[C@@H]2O[C@@H]1O[C@H](CO)[C@@H](O)[C@H](O)[C@H]1O` [2-OHE2 17-Glu, 2-Hydroxyestradiol 17-(β-D-glucopyranoside)], the “amount of lipid peroxides” value is given as 8.93 nmol/mg protein in data set [1] (incubation 1 hr), 19.48 nmol/mg protein in data set [1] (incubation 2 hr), 24.76 nmol/mg protein in data set [1] (incubation 3 hr) and 32.17 nmol/mg protein in data set [1] (incubation 4 hr). Also, the “inhibitory potency on LDL peroxidation (in words)” value in data set [1] (compared with 2-OHE2) is recorded as “the same to that of 2-OHE2”. Moreover, in data set [1] (in words), the “inhibition of the peroxidation of LDL (in words)” value is given as “clearly inhibited the peroxidation of LDL”. Moreover, the solubility in “Solubility in water” lay within 2 to 3 mL; in the data set “Solubility in water” (water) it was 333 to 500 µg/mL (≈ 740 to 1110 µM). Also, the “incorporation into red blood cells (in words)” value in the data set with red blood cells is listed as “markedly retarded as compared with that of 2-OHE2”. Besides, the “abnormal symptoms (in words)” value in the data set with Male mice of ddY strain was “no abnormal symptom was found”. Further, the “survival (in words)” value in the data set with Male mice of ddY strain is “All mice survived”. The LD50 at 336 h in data set [2] was over 100 mg/kg.
For `C[C@]12CC[C@@H]3c4cc(O)c(O)cc4CC[C@H]3[C@@H]1CC[C@@H]2O[C@@H]1O[C@H](CO)[C@@H](O[C@H]2O[C@H](CO)[C@@H](O)[C@H](O)[C@H]2O)[C@H](O)[C@H]1O` [2-OHE2 17-Mal, 2-hydroxyestradiol 17-(β-maltoside)], the solubility in the data set “Solubility in water” was 2 mL; in “Solubility in water” (water) it was 500 µg/mL (≈ 816 µM). Moreover, the “incorporation into red blood cells (in words)” value in the data set on red blood cells is reported as “markedly retarded as compared with that of 2-OHE2”.
Turning to `C[C@]12CC[C@@H]3c4cc(O[C@@H]5O[C@H](CO)[C@@H](O)[C@H](O)[C@H]5O)c(O)cc4CC[C@H]3[C@@H]1CC[C@@H]2O` [2-OHE2 2-Glu, 2-Hydroxyestradiol 2-(β-D-glucopyranoside)], in the data set on rat liver homogenate, the “inhibition of the lipid peroxidation” value worked out at 77%. For the same compound, the “inhibition of the lipid peroxidation (in words)” value in the data set on rat brain homogenate (5 μM and 10 μM) is reported as “strongly inhibited the lipid peroxidation in a concentration dependent manner”. For the same compound, the “amount of lipid peroxides in terms of malondialdehyde” value in the data set with rat brain homogenate (5 μM, incubation 0 hr) stood at 0.271 nmol/mg protein; in the data set on rat brain homogenate (5 μM, incubation 1 hr), 1.124 nmol/mg protein; in the data set on rat brain homogenate (5 μM, incubation 2 hr) it was 1.867 nmol/mg protein; in the data set on rat brain homogenate (5 μM, incubation 4 hr), 3.167 nmol/mg protein; in the data set on rat brain homogenate (10 μM, incubation 0 hr) it was 0.271 nmol/mg protein; in the data set with rat brain homogenate (10 μM, incubation 1 hr), 0.905 nmol/mg protein. Further, the “amount of lipid peroxides in terms of malondialdehyde” value was determined as 1.326 nmol/mg protein with rat brain homogenate (10 μM, incubation 2 hr) and 1.534 nmol/mg protein with rat brain homogenate (10 μM, incubation 4 hr). In addition, the results for the solubility in “Solubility in water” and in “Solubility in water” (water) were 0.5 to 1 mL and 1430 µg/mL (≈ 3170 µM), respectively. The “abnormal symptoms (in words)” value with Male mice of ddY strain is listed as “no abnormal symptom was found”. Moreover, the “survival (in words)” value in the data set with Male mice of ddY strain was “All mice survived”. The LD50 at 336 h in data set [2] is over 100 mg/kg.
Turning to `C[C@]12CC[C@@H]3c4cc(O)c(O)cc4CC[C@H]3[C@@H]1CC[C@@H]2O` [Example 2-OHE2, 2-hydroxyestradiol, reference compound], the “inhibition of the lipid peroxidation” value with rat liver homogenate worked out at 73%. Further, the “amount of lipid peroxides” value in data set [1] (incubation 1 hr) was found to be 17.45 nmol/mg protein; in data set [1] (incubation 2 hr) it was 24.55 nmol/mg protein; in data set [1] (incubation 3 hr), 27.29 nmol/mg protein; in data set [1] (incubation 4 hr), 30.74 nmol/mg protein. In the data set “Solubility in water” (per 1 mg, water, read-out: volume of water required to dissolve 1 mg), the solubility is under 333 µg/mL. Moreover, in data set [3] (0.5 min), the remaining at 0.5 min worked out at 4.4%. The remaining at 1 min in data set [3] (1.0 min) worked out at 4.4%. The remaining at 2 min in data set [3] (2.0 min) came to 3.7%.
